Data: patent EP0758233B1, “PDE IV INHIBITORS FOR TREATING MULTIPLE SCLEROSIS” (SCHERING AKTIENGESELLSCHAFT, priority 1994, dated 1995)

Legend:
[1] = test system: encephalitogenic CD4+ MBP-specific rat TCL (L1402); assay: TNF/LT production by rat MBP-specific T-cell line, cytotoxicity bioassay; assay type: cell-based; settings: stereospecificity, (-)- versus (+)-enantiomer
From the text: To assess the ability of rolipram alone or in various combinations as described to modify autoimmune processes, we investigated its influence on TNF production in vitro by MBP-specific T-cell lines from MS patients and Lewis rats. MBP is a major candidate antigen in MS, and T-cell-mediated immunity is of crucial importance in its pathogenesis. Similar to EAE, MBP-specific T-cells in humans are often cytotoxic, of Th1 type secreting interferon (IFN)-gamma and TNF/LT, and recognize epitopes that are also encephalitogenic in EAE.
Similar results were found using an encephalitogenic CD4+ MBP-specific rat TCL (L1402). […] Previous investigations had shown that inhibition of cAMP PDE by rolipram is stereospecific.
TNF and LT may both be produced by autoactive T-cells. CD4+ cells have been reported to be the major source of TFN in autoimmune insulitis of NOD mice. The cytokine bioassay for TNF/LT detection employed here is sensitive to TNF and LT, but is 200 times more sensitive to the former.

[2] = test system: Experimental Allergic Encephalomyelitis (EAE); assay: Prevention of Experimental Allergic Encephalomyelitis (EAE) in immunized marmosets; assay type: in vivo, Callithrix jacchus (common marmoset); settings: treatment stopped on day 60 following immunization; two marmosets; day counted from withdrawal
active EAE = assay: Treatment of active (chronic) EAE in a marmoset; assay type: in vivo, Callithrix jacchus (common marmoset); settings: one marmoset with chronic EAE; escalating doses of Rolipram in DMSO
[3] = test system: adoptive cell transfer (tEAE); assay: EAE after adoptive cell transfer (tEAE) in Lewis rats; assay type: in vivo; settings: treatment after onset of symptoms; n = 5
Experimental: The results of our in vivo findings prompted us to perform treatment experiments in EAE after active immunization (aEAE) and adoptive cell transfer (tEAE) in Lewis rats. […] In clinically manifest EAE, treatment was started within 6 hours of the onset of symptoms. […] In tEAE similar effects were observed. […] Treatment after onset of symptoms also lead to a marked reduction in maximum severity (treated group: MMS 0.7 ± 0.10, n = 5; vehicle treated matched controls 2.45 ± 0.56, n = 5, p 0.01).

SMILES	times more effective than the (+)-enantiomer (inhibition of TNF/LT production) [1] [times]	clinical signs of EAE following withdrawal of Rolipram [2] [days]	MRI improvement following initiating Rolipram treatment (active EAE) [days]	marked improvement (physical symptoms) after initiating treatment (active EAE) [days]	maximum severity, MMS [3]
COc1ccc(C2CNC(=O)C2)cc1OC1CCCC1 (single isomer, unassigned; (-)) [(-)-rolipram]	55	–	–	–	–
COc1ccc(C2CNC(=O)C2)cc1OC1CCCC1 (centres unmarked) [Rolipram, 4-[(3-cyclopentyloxy)-4-methoxyphenyl)-2-pyrrolidinone]	–	17	14	10	0.7 ± 0.10
